Data from ChEMBL document CHEMBL1148532, “Role of Tyr(356(7.43)) and Ser(190(4.57)) in antagonist binding in the rat beta1-adrenergic receptor” (J Med Chem, 2006).

Tests used:
[1] = target: Beta-1 adrenergic receptor (Rattus norvegicus, UniProt P18090, S190A)
[2] = target: Beta-1 adrenergic receptor (Rattus norvegicus, UniProt P18090, W134A)
[3] = target: Beta-1 adrenergic receptor (Rattus norvegicus, UniProt P18090, Y356A)
[4] = target: Beta-1 adrenergic receptor (Rattus norvegicus, UniProt P18090, Y356F)
Beta-1 adrenergic receptor (Rattus norvegicus, UniProt P18090, Y356F), sequence (P18090 whole entry Y356F): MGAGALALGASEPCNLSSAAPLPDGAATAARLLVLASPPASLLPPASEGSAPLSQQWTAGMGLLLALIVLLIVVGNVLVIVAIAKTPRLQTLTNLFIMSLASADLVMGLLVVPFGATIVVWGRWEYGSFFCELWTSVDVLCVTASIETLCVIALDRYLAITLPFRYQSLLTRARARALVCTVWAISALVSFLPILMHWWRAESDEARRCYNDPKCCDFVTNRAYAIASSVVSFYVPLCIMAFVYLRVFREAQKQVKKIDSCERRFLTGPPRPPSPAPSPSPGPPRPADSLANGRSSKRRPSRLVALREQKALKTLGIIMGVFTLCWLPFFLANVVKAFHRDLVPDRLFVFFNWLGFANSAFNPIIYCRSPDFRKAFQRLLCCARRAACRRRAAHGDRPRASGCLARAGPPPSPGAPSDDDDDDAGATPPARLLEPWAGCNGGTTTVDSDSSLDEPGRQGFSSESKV

[5] = target: Beta-1 adrenergic receptor (Rattus norvegicus, UniProt P18090)
Beta-1 adrenergic receptor (Rattus norvegicus, UniProt P18090), sequence (P18090 whole entry): as the sequence (P18090 whole entry Y356F) above, with F356Y counted along it
Description: Antagonist activity at rat wild type beta-1 adrenergic receptor expressed in CHO cells

Beta-1 adrenergic receptor (Rattus norvegicus, UniProt P18090, W134A), sequence (P18090 whole entry W134A): as the sequence (P18090 whole entry Y356F) above, with W134A, F356Y counted along it
Beta-1 adrenergic receptor (Rattus norvegicus, UniProt P18090, Y356A), sequence (P18090 whole entry Y356A): as the sequence (P18090 whole entry Y356F) above, with F356A counted along it
Beta-1 adrenergic receptor (Rattus norvegicus, UniProt P18090, S190A), sequence (P18090 whole entry S190A): as the sequence (P18090 whole entry Y356F) above, with S190A, F356Y counted along it

| SMILES | Ki [1] | Ki [2] | Ki [3] | Ki [4] | Ki [5] | Kd [1] | Kd [2] | Kd [3] | Kd [4] | Kd [5] |
| --- | --- | --- | --- | --- | --- | --- | --- | --- | --- | --- |
| N#Cc1cc(OCCOCC2CC2)ccc1OCC(O)CNCCNC(=O)Nc1ccc(O)cc1 (stereo not given) [LK-204545] | 100 nM | 63.1 nM | 79400 nM | 79.4 nM | 7.94 nM |  |  |  |  |  |
| CC(C)(C)NCC(O)COc1cccc2[nH]c(C#N)cc12 (stereo not given) [CYANOPINDOLOL] | 0.316 nM | 0.126 nM | 316 nM | 0.0398 nM | 0.0501 nM |  |  |  |  |  |
| CC(C)(C)NCC(O)COc1cccc2[nH]c(C#N)c(I)c12 (stereo not given) |  |  |  |  |  | 0.0631 nM | 0.0631 nM | 0.316 nM | 0.0794 nM | 0.0631 nM |

Second part, led by results:

| Ki [1] | Ki [2] | Ki [3] | Ki [4] | Ki [5] | SMILES | Kd [1] | Kd [2] | Kd [3] | Kd [4] | Kd [5] |
| --- | --- | --- | --- | --- | --- | --- | --- | --- | --- | --- |
| 794 nM | 7.94 nM | 10000 nM | 2 nM | 1.26 nM | Cn1cc(C(F)(F)F)nc1-c1ccc(OCC(O)CNCCOc2ccc(O)c(C(N)=O)c2)cc1 (stereo not given) [CGP-20712A] |  |  |  |  |  |
| 12600 nM | 79.4 nM | 794 nM | 100 nM | 50.1 nM | CCOCCOc1ccc(OC[C@@H](O)CNCCc2ccc(OC)c(OC)c2)cc1 |  |  |  |  |  |
